Molecules are shown by their SMILES. Read-outs that look alike come from different tables or passages of the source.

One assay has as its target LSD1 (Homo sapiens, UniProt O60341). The assay can be described thus: LSD1 10-dose IC50 fluorescence coupling enzyme assay (HRP/Amplex Red, resorufin). It counts as biochemical. As to conditions: 10 M histone H3(1-21)K4me2 peptide substrate; 3-fold serial dilution in duplicate starting at 100 μM. As to the method:
Compounds were tested in a 10-dose IC50 mode fluorescence coupling enzyme assay with 3-fold serial dilution in duplicate starting at 100 μM. The production of FAD-dependent H2O2 as a result of demethylase activity of LSD1 on […] histone H3(1-21)K4me2 peptide substrate was measured by coupling with HRP and Amplex Red to yield resorufin (fluorescence measured at Ex/Em=535/590 nm on EnVision, Perkin Elmer).

A further assay relates to MV4;11 cells. As to the kind of experiment: Cell Titer-Glo Luminescent Cell Viability Assay, cell growth inhibition against MV4;11 cells. The class given is cell-based. As to the method:
Cell growth inhibition against MV4;11 cells was confirmed for the synthetic compounds. The Cell Titer-Glo Luminescent Cell Viability Assay (Promega, USA) was used to determine the number of viable cells in culture based on quantitation of the ATP present, which signals the presence of metabolically active cells. This assay was run in a 96-well plate format arrayed in a 10-point dose curve, ranging from 0 to 50 μM with 4-fold dilutions for each compound. Cells are seeded on Day 0 at 3750 cells per well. At Day 5, a portion of each well is assayed for viability according to the Cell Titer-Glo protocol. Briefly, cells/plates were centrifuged at 1100×g for 5 minutes. 100 μL of media was removed from each well and replaced with 100 μL of CellTiter-Glo. The plates were shaken at room temperature for 10 minutes and measured on a luminescence plate reader. Another portion of each well from the Day 5 plate is used to seed a new 96 plate containing fresh compound and media set up in the equivalent 10-point dose curve array in order to continue the cell growth inhibition assay for another 5 days. A final timepoint is collected at Day 10 using the Cell Titer-Glo protocol. Luminescence was detected on an EnVision® Multilabel Plate Reader (Perkin Elmer, Waltham, Mass.) and IC50 determination was made using Graph Pad Prism software.

The mark [1] stands for this setting: Homo sapiens, MV4-11, 120 h, MV4;11 cells, Day 5, 10-point dose curve 0 to 50 μM, read-out: Cell Titer Glo IC50 (5 d).
Where [2] appears, read: Homo sapiens, MV4-11, MV4;11 cells, Day 10 (re-seeded at Day 5 with fresh compound), 10-point dose curve 0 to 50 μM, read-out: Cell Titer Glo IC50 (10 d).

In the case of `COc1ccc(-n2nc(C(=O)NC3CCNCC3)cc2-c2ccc(C#N)c(F)c2)cc1` [Example 24, 5-(4-Cyano-3-fluorophenyl)-1-(4-methoxyphenyl)-N-(piperidin-4-yl)-1H-pyrazole-3-carboxamide], the half-maximal inhibitory concentration (IC50) on LSD1 and in the assay on MV4;11 cells (setting [1]) was 1000 to 10000 nM each time.

`COc1ccc(-n2nc(C(=O)N[C@H]3CCC[C@H](N)C3)cc2-c2ccc(C#N)c(F)c2)cc1` [Example 25, N-((1S,3S)-3-aminocyclohexyl)-5-(4-cyano-3-fluorophenyl)-1-(4-methoxyphenyl)-1H-pyrazole-3-carboxamide 2,2,2-trifluoroacetate]: the IC50 against LSD1 and with MV4;11 cells (setting [1]) was 1000 to 10000 nM each time. On to `COc1ccc(-n2nc(NC(=O)[C@H]3CCNC3)cc2-c2ccc(C#N)c(F)c2)cc1` [Example 95, (S)-N-(5-(4-cyano-3-fluorophenyl)-1-(4-methoxyphenyl)-1H-pyrazol-3-yl)pyrrolidine-3-carboxamide 2,2,2-trifluoroacetate], for which the IC50 (commonly the concentration that gives 50% inhibition) is below 500 nM against LSD1 and 1000 to 10000 nM with MV4;11 cells (setting [1]). Compound `COc1cc(N2CCNC(=O)C2)ccc1-n1nc(C(=O)N2CCC[C@@H](N)C2)cc1-c1ccc(C#N)c(F)c1` [Example 51, (R)-4-(3-(3-aminopiperidine-1-carbonyl)-1-(2-methoxy-4-(3-oxopiperazin-1-yl)phenyl)-1H-pyrazol-5-yl)-2-fluorobenzonitrile] came in with an IC50 at LSD1 below 500 nM. Consider `COc1ccc(-n2nc(C(=O)N3CCC[C@H](N)C3)cc2-c2ccc(C#N)c(F)c2)cc1` [Example 19, (S)-4-(3-(3-Aminopiperidine-1-carbonyl)-1-(4-methoxyphenyl)-1H-pyrazol-5-yl)-2-fluorobenzonitrile], for which the IC50 at LSD1, in the assay on MV4;11 cells (setting [1]) and in the assay on MV4;11 cells (setting [2]) was below 500 nM each time. As to `CN1CCN(c2ccc(-n3nc(C(=O)N4CCC[C@@H](N)C4)cc3-c3ccc(C#N)c(F)c3)cc2)CC1=O` [Example 50, (R)-4-(3-(3-aminopiperidine-1-carbonyl)-1-(4-(4-methyl-3-oxopiperazin-1-yl)phenyl)-1H-pyrazol-5-yl)-2-fluorobenzonitrile], the IC50 on LSD1 and in the assay on MV4;11 cells (setting [2]) was below 500 nM in each case. As to `Cn1cc(-c2ccc(-n3nc(C(=O)N4CCC[C@@H](N)C4)cc3-c3ccc(C#N)c(F)c3)cc2)cn1` [Example 66, (R)-4-(3-(3-aminopiperidine-1-carbonyl)-1-(4-(1-methyl-1H-pyrazol-4-yl)phenyl)-1H-pyrazol-5-yl)-2-fluorobenzonitrile 2,2,2-trifluoroacetate], the IC50 on LSD1 and with MV4;11 cells (setting [2]) was below 500 nM throughout. In the case of `CN1CCN(c2ccc(-n3nc(C(=O)N4CCC[C@@H](N)C4)cc3-c3ccc(C#N)c(F)c3)nc2)CC1` [Example 54, (R)-4-(3-(3-aminopiperidine-1-carbonyl)-1-(5-(4-methylpiperazin-1-yl)pyridin-2-yl)-1H-pyrazol-5-yl)-2-fluorobenzonitrile 2,2,2-trifluoroacetate], the IC50 on LSD1 and with MV4;11 cells (setting [2]) was 1000 to 10000 nM throughout.

For the compound `COC1CCN(c2ccc(-n3nc(-c4ccc(C#N)c(F)c4)cc3C(=O)N3CCC[C@@H](N)C3)cc2)CC1` [Example 57, (R)-4-(5-(3-aminopiperidine-1-carbonyl)-1-(4-(4-methoxypiperidin-1-yl)phenyl)-1H-pyrazol-3-yl)-2-fluorobenzonitrile 2,2,2-trifluoroacetate], the IC50 on LSD1 was below 500 nM; in the assay on MV4;11 cells (setting [2]), 1000 to 10000 nM.

As to `COc1ccc(-n2nc(-c3ccc(C#N)cc3)cc2C(=O)N2CCCC(N)C2)cc1` (stereo not drawn) [Example 4, 4-(5-(3-Aminopiperidine-1-carbonyl)-1-(4-methoxyphenyl)-1H-pyrazol-3-yl)benzonitrile], the IC50 at LSD1 is below 500 nM; in the assay on MV4;11 cells (setting [1]), 1000 to 10000 nM. As to `Cn1ncc2cc(-n3nc(C(=O)N4CCC[C@@H](N)C4)cc3-c3ccc(C#N)c(F)c3)ccc21` [Example 43, (R)-4-(3-(3-aminopiperidine-1-carbonyl)-1-(1-methyl-1H-indazol-5-yl)-1H-pyrazol-5-yl)-2-fluorobenzonitrile 2,2,2-trifluoroacetate], the IC50 against LSD1 and with MV4;11 cells (setting [2]) was below 500 nM throughout. With `N#Cc1ccc(-c2cc(C(=O)N3CCC[C@@H](N)C3)nn2-c2ccc(-c3ccc4c(c3)OCCO4)cc2)cc1F` [Example 85, (R)-4-(3-(3-aminopiperidine-1-carbonyl)-1-(4-(2,3-dihydrobenzo[b][1,4]dioxin-6-yl)phenyl)-1H-pyrazol-5-yl)-2-fluorobenzonitrile 2,2,2-trifluoroacetate], the IC50 on LSD1 and in the assay with MV4;11 cells (setting [2]) was below 500 nM throughout.

Turning to `N#Cc1ccc(-c2cc(C(=O)N3CCC[C@@H](N)C3)nn2-c2ccc(N3CCC(=O)CC3)cc2)cc1F` [Example 46, (R)-4-(3-(3-aminopiperidine-1-carbonyl)-1-(4-(4-oxopiperidin-1-yl)phenyl)-1H-pyrazol-5-yl)-2-fluorobenzonitrile], the IC50 against LSD1 and with MV4;11 cells (setting [2]) was below 500 nM in each case. Regarding `Cc1cc(CCn2nc(C(=O)N3CCC[C@H](N)C3)cc2-c2ccc(C#N)c(F)c2)on1` [Example 39, (S)-4-(3-(3-aminopiperidine-1-carbonyl)-1-(2-(3-methylisoxazol-5-yl)ethyl)-1H-pyrazol-5-yl)-2-fluorobenzonitrile], the 50% inhibitory concentration (IC50) on LSD1 and in the assay on MV4;11 cells (setting [1]) was above 10000 nM in each case.

In the case of `Cc1ccc(-n2nc(C(=O)N3CCC[C@H](N)C3)cc2-c2ccc(C#N)c(F)c2)cc1` [Example 12, (S)-4-(3-(3-Aminopiperidine-1-carbonyl)-1-(p-tolyl)-1H-pyrazol-5-yl)-2-fluorobenzonitrile], the IC50 against LSD1, with MV4;11 cells (setting [1]) and in the assay on MV4;11 cells (setting [2]) was below 500 nM in each case. `COC1CCN(c2ccc(-n3nc(C(=O)N4CCCC(N)C4)cc3-c3ccc(C#N)c(F)c3)cc2)CC1` (stereo in doubt) [Example 64, (R)-4-(3-(3-aminopiperidine-1-carbonyl)-1-(4-(4-methoxypiperidin-1-yl)phenyl)-1H-pyrazol-5-yl)-2-fluorobenzonitrile 2,2,2-trifluoroacetate]: the IC50 on LSD1 was below 500 nM; in the assay with MV4;11 cells (MV4;11 cells, Day 5, 10-point dose curve 0 to 50 μM, 2,2,2-trifluoroacetate, read-out: Cell Titer Glo IC50 (5 d)) it was below 500 nM; in the assay with MV4;11 cells (MV4;11 cells, Day 10 (re-seeded at Day 5 with fresh compound), 10-point dose curve 0 to 50 μM, read-out: Cell Titer Glo IC50 (10 d)) it was below 500 nM. Turning to `COc1ccc(-n2nc(C(=O)N3CC(CN)C3)cc2-c2ccc(C#N)c(F)c2)cc1` [Example 32, 4-(3-(3-(Aminomethyl)azetidine-1-carbonyl)-1-(4-methoxyphenyl)-1H-pyrazol-5-yl)-2-fluorobenzonitrile 2,2,2-trifluoroacetate], the IC50 against LSD1 and with MV4;11 cells (setting [1]) was 1000 to 10000 nM each time. Turning to `COc1ccc(-n2nc(NC(=O)[C@@H]3CCNC3)cc2-c2ccc(C#N)c(F)c2)cc1` [Example 94, (R)-N-(5-(4-cyano-3-fluorophenyl)-1-(4-methoxyphenyl)-1H-pyrazol-3-yl)pyrrolidine-3-carboxamide 2,2,2-trifluoroacetate], the IC50 against LSD1 was below 500 nM; in the assay on MV4;11 cells (setting [1]), 1000 to 10000 nM. In turn, `CN1CCN(c2ccc(-n3nc(-c4ccc(C#N)c(F)c4)cc3C(=O)N3CCC[C@@H](N)C3)cc2F)CC1` [Example 80, (R)-4-(5-(3-aminopiperidine-1-carbonyl)-1-(3-fluoro-4-(4-methylpiperazin-1-yl)phenyl)-1H-pyrazol-3-yl)-2-fluorobenzonitrile 2,2,2-trifluoroacetate] returned an IC50 against LSD1 below 500 nM. On the same count and under the same terms, to `COc1ccc(-n2nc(C(=O)N3CCC(NC(=N)N)CC3)cc2-c2ccc(C#N)c(F)c2)cc1` [Example 30, 1-(1-(5-(4-Cyano-3-fluorophenyl)-1-(4-methoxyphenyl)-1H-pyrazole-3-carbonyl)piperidin-4-yl)guanidine 2,2,2-trifluoroacetate] belongs 1000 to 10000 nM; to `CN1CCN(c2ccc(-n3nc(C(=O)N4CCC[C@@H](N)C4)cc3-c3ccc(C#N)c(F)c3)c(F)c2)CC1` [Example 67, (R)-4-(3-(3-aminopiperidine-1-carbonyl)-1-(2-fluoro-4-(4-methylpiperazin-1-yl)phenyl)-1H-pyrazol-5-yl)-2-fluorobenzonitrile], below 500 nM; to `N#Cc1ccc(-c2cc(C(=O)N3CCC[C@@H](N)C3)nn2-c2ccc(N3CCNC(=O)C3)cc2)cc1F` [Example 49, (R)-4-(3-(3-aminopiperidine-1-carbonyl)-1-(4-(3-oxopiperazin-1-yl)phenyl)-1H-pyrazol-5-yl)-2-fluorobenzonitrile], below 500 nM.
